Data on 10 compounds can be found in patent publication US20260234161A1, “RIFABUTIN ANALOGS FOR THE TREATMENT OF BACTERIAL DISEASES” (BIOVERSYS AG, priority 2023, published 2026).

Holding throughout (type): cell-based
In experiment [1] the test system is S. aureus (UAMS-1625 strain). Briefly: MIC by broth microdilution, S. aureus. Particulars: Staphylococcus aureus, 20 h, read-out: MIC S. aureus. The method, then:
(§1) MIC values were determined by broth microdilution method according to the CLSI guidelines with the following exceptions: MIC against A. baumannii was performed in RPMI medium supplemented with 10% FCS and MIC against M. abscessus was performed in Middlebrook 7H9 broth supplemented with Middlebrook ADC growth supplement (10%; see column “M. abscessus 7H9”). MIC forM abscessus was determined a second time in standard cation adjusted Mueller Hinton broth without growth supplement (see colum “M. abscessus MH”). All other MIC were performed in standard cation adjusted Mueller Hinton broth, supplemented with Middlebrook ADC growth supplement (5%) for the slow growing mycobacteria (M. xenopi, M. kansasii and M. avium).
(§2) The following procedure applies to all species tested, except forM xenopi. From a fresh culture plate (from overnight to several days depending on the bacteria), cells were resuspended in 0.9% (w/v) saline solution and bacterial inoculum was prepared in the respective testing medium with 5×10^5 CFU/mL. For M. xenopi, the inoculum was prepared from a fresh liquid culture (7H9+ADC). The appropriate volumes of a 10 mg/mL compound solution were directly dispensed in the 96-well assay plate using a digital dispenser to create two-fold dilution series from 32 to 0.002 μg/mL final concentration for A. baumannii and S. aureus; from 16 to 0.016 μg/mL for M. abscessus and M. avium; and from 1 to 6×10^−5 μg/mL for M. kansasii and M. xenopi. 100 μL of bacterial suspension was finally added to the compounds. Plates were covered and incubated without shaking at 35° C. for 20 hours for A. baumanii and S. aureus; at 30° C. for 4 days for M. abscessus; and at 37° C. for 7 days (at least) for M. kansasii (covered with aluminum foil to avoid light exposure), M. avium and M. xenopi. Every experiment contained an antibiotic as quality control. MIC was determined visually as the lowest concentration of a compound that prevents visible growth of the bacteria.
(§3) The in vitro activity of compounds described herein was determined against S. aureus (UAMS-1625 strain), A. baumannii (HUMC1 strain), M. abscessus (ATCC 19977), M. kansasii (ATCC 12478), M. avium (ATCC 25291), and M. xenopi (ATCC 19250).

The subject of experiment [2] is A. baumannii (HUMC1 strain). Nature of the experiment: MIC by broth microdilution, A. baumannii (RPMI + 10% FCS). Particulars: Acinetobacter baumannii; HUMC1 strain; RPMI medium + 10% FCS; 35° C., 20 hours; read-out: MIC A. baumannii. The method, then: as §1, §2, §3
In general terms: Broth dilution looks for growth in wells or tubes with falling amounts of substance.

Experiment [3] relates to M. abscessus (ATCC 19977). Nature of the experiment: MIC by broth microdilution, M. abscessus in cation adjusted Mueller Hinton broth. Particulars: Mycobacteroides abscessus, ATCC19977, 96 h; ATCC 19977; cation adjusted Mueller Hinton broth without growth supplement; 30° C., 4 days; read-out: MIC M. abscessus MH. The method, then: as §1, §2, §3

Values after ≈ are worked out from the molar mass of the structure shown.

Usually MIC stands for the lowest concentration that inhibits growth of the organism. Consider `CCCN1CCN(C(=O)O[C@H]2[C@H](C)[C@H](O)[C@H](C)[C@@H](O)[C@@H](C)/C=C/C=C(/C)C(=O)NC3=C4NC5(CCN(CC(C)C)CC5)N=C4c4c(c(O)c(C)c5c4C(=O)[C@@](C)(O/C=C/[C@H](OC)[C@H]2C)O5)C3=O)CC12CC2` [Compound 59], for which the MIC in experiment [1] worked out at 0.25 µg/mL (≈ 0.254 µM); in experiment [2], 0.03 µg/mL; in experiment [3], 0.125 µg/mL (≈ 0.127 µM).
As to `CO[C@H]1/C=C/O[C@@]2(C)Oc3c(C)c(O)c4c(c3C2=O)C2=NC3(CCN(CC(C)C)CC3)NC2=C(NC(=O)/C(C)=C\C=C\[C@H](C)[C@H](O)[C@@H](C)[C@@H](O)[C@@H](C)[C@H](OC(=O)N2CCCN(C3CCCC3)CC2)[C@@H]1C)C4=O` [Compound 60], the MIC is 0.06 µg/mL (≈ 0.06 µM) in experiment [1], not above 0.016 µg/mL in experiment [2] and 0.25 µg/mL (≈ 0.25 µM) in experiment [3].
The corresponding values for `CO[C@H]1/C=C/O[C@@]2(C)Oc3c(C)c(O)c4c(c3C2=O)C2=NC3(CCN(CC(C)C)CC3)NC2=C(NC(=O)/C(C)=C\C=C\[C@H](C)[C@H](O)[C@@H](C)[C@@H](O)[C@@H](C)[C@H](OC(=O)N2CCC(n3ccnc3)CC2)[C@@H]1C)C4=O` [Compound 61] are 0.03 µg/mL (≈ 0.0305 µM), not above 0.016 µg/mL and 4 µg/mL (≈ 4.07 µM).
The like results for `CO[C@H]1/C=C/O[C@@]2(C)Oc3c(C)c(O)c4c(c3C2=O)C2=NC3(CCN(CC(C)C)CC3)NC2=C(NC(=O)/C(C)=C\C=C\[C@H](C)[C@H](O)[C@@H](C)[C@@H](O)[C@@H](C)[C@H](OC(=O)N2CCC(N3CCCC3)CC2)[C@@H]1C)C4=O` [Compound 62] were, in that order, 0.06 µg/mL (≈ 0.0609 µM), not above 0.016 µg/mL and 1 µg/mL (≈ 1.01 µM).
The like results for `CO[C@H]1/C=C/O[C@@]2(C)Oc3c(C)c(O)c4c(c3C2=O)C2=NC3(CCN(CC(C)C)CC3)NC2=C(NC(=O)/C(C)=C\C=C\[C@H](C)[C@H](O)[C@@H](C)[C@@H](O)[C@@H](C)[C@H](OC(=O)N2CCC3CCCCC3C2)[C@@H]1C)C4=O` (stereo partly drawn) [Compound 64] were, in that order, 1 µg/mL (≈ 1.03 µM), 0.5 µg/mL and 4 µg/mL (≈ 4.12 µM).
For `CO[C@H]1/C=C/O[C@@]2(C)Oc3c(C)c(O)c4c(c3C2=O)C2=NC3(CCN(CC(C)C)CC3)NC2=C(NC(=O)/C(C)=C\C=C\[C@H](C)[C@H](O)[C@@H](C)[C@@H](O)[C@@H](C)[C@H](OC(=O)N2CCCC3(CN(CC5CCCCC5)C3)C2)[C@@H]1C)C4=O` [Compound 65], the MIC in experiment [1] is 0.5 µg/mL (≈ 0.475 µM); in experiment [2] it was 0.004 µg/mL; in experiment [3] it was 0.125 µg/mL (≈ 0.119 µM).
The corresponding values for `CO[C@H]1/C=C/O[C@@]2(C)Oc3c(C)c(O)c4c(c3C2=O)C2=NC3(CCN(CC(C)C)CC3)NC2=C(NC(=O)/C(C)=C\C=C\[C@H](C)[C@H](O)[C@@H](C)[C@@H](O)[C@@H](C)[C@H](OC(=O)N2CC3(CCN(CC5CCCCC5)CC3)C2)[C@@H]1C)C4=O` [Compound 66] are 0.125 µg/mL (≈ 0.119 µM), 0.004 µg/mL and 0.125 µg/mL (≈ 0.119 µM).
On to `CCN1CCC2(CC1)CCN(C(=O)O[C@H]1[C@H](C)[C@H](O)[C@H](C)[C@@H](O)[C@@H](C)/C=C/C=C(/C)C(=O)NC3=C4NC5(CCN(CC(C)C)CC5)N=C4c4c(c(O)c(C)c5c4C(=O)[C@@](C)(O/C=C/[C@H](OC)[C@H]1C)O5)C3=O)CC2` [Compound 68], for which the MIC is 0.06 µg/mL (≈ 0.0592 µM) in experiment [1], 0.003 µg/mL in experiment [2] and 1 µg/mL (≈ 0.987 µM) in experiment [3].
The corresponding values for `CO[C@H]1/C=C/O[C@@]2(C)Oc3c(C)c(O)c4c(c3C2=O)C2=NC3(CCN(CC(C)C)CC3)NC2=C(NC(=O)/C(C)=C\C=C\[C@H](C)[C@H](O)[C@@H](C)[C@@H](O)[C@@H](C)[C@H](OC(=O)N2CCC3(CC2)CCN(C(C)C)CC3)[C@@H]1C)C4=O` [Compound 69] are 0.125 µg/mL (≈ 0.122 µM), 0.002 µg/mL and 1 µg/mL (≈ 0.973 µM).
As for `CO[C@H]1/C=C/O[C@@]2(C)Oc3c(C)c(O)c4c(c3C2=O)C2=NC3(CCN(CC(C)C)CC3)NC2=C(NC(=O)/C(C)=C\C=C\[C@H](C)[C@H](O)[C@@H](C)[C@@H](O)[C@@H](C)[C@H](OC(=O)N2CCC3(CCN(CC(C)C)CC3)CC2)[C@@H]1C)C4=O` [Compound 70], the MIC was 0.125 µg/mL (≈ 0.12 µM) in experiment [1], 0.004 µg/mL in experiment [2] and 0.25 µg/mL (≈ 0.24 µM) in experiment [3].
